Test results from patent US5068183A, “Method for measurement of α-amylase activity” (Kurita Water Industries, Ltd., priority 1986, dated 1991).

Key:
α-amylase [1] = experiment: Measurement of α-amylase activity with Reagent II (substrate, α-glucosidase, inositol dehydrogenase, NAD); type: biochemical; conditions: substrate 1 mmol/l; sample serum containing 55 mU/ml and 220 mU/ml; 37° C., 10 minutes; linear after 4 minutes
Protocol: On the other hand, in the case of using the malto-oligo saccharide represented by general formula (V), when the substrate and glucosidase as a coupled enzyme are added to a sample such as a body fluid or the like, the reaction proceeds as shown below (hereinafter G5 I represented by general formula (VI) is used as a specific example of general formula (V)). [drawing 8]
The thus liberated inositol or derivatives thereof are reacted with inositol dehydrogenase (IDH) in the presence of NAD thereby to produce NADH; by the change in absorbancy, the amount of inositol can be determined. [drawing 9]
Reagent II was prepared by the following formulation.
(§1) 1 mmol/l (final concentration)
(§2) 25 U/ml (final concentration)
40 U/ml (final concentration
NAD 40 mmol/l (final concentration)
(§3) 100 mmol/l (final concentration)
To 800 μl of Reagent II described above was added 100 μl of a sample serum containing 55 mU/ml and 220 mU/ml, respectively. While incubating at 37° C. for 10 minutes, change in absorbancy was measured at 340 nm.
Measurement was performed in a similar manner as in Example 5 except that 100 mg/ml of glucose was further added to each sample serum.

α-amylase [2] = experiment: Measurement of α-amylase activity with Reagent I (substrate, α-glucosidase, mannitol dehydrogenase, NADH); type: biochemical; conditions: substrate 1 mmol/l; sample serum containing 90 mU/ml and 270 mU/ml; 37° C., 10 minutes; linear after 6 minutes
Protocol: When the substrate and glucosidase as a coupled enzyme are added to a sample such as a body fluid or the like, the reaction proceeds as shown below in the case of the malto-oligo saccharide represented by general formula (I) (hereinafter MeG5 F represented by general formula (IV) is used as a specific example of general formula (I)). [drawing 6]
The thus liberated monosaccharides such as fructose or the like and derivatives thereof are reacted with, for example, mannitol dehydrogenase (MDH) or sorbitol dehydrogenase (SDH) in the presence of NADH thereby to produce […]; by the change in absorbancy, the amount of fructose can be determined. [drawing 7]
Reagent I was prepared by the following formulation.
as §1, §2
40 U/ml (final concentration)
NADH 0.16 mmol/l (final concentration)
as §3
100 mmol/1 (final concentration) To 800 μl of Reagent I described above was added 100 μl of a sample serum containing 90 mU/ml and 270 mU/ml, respectively. While incubating at 37° C. for 10 minutes, change in absorbancy was measured at 340 nm.
Measurement was performed in a similar manner except that 100 mg/ml of glucose was further added to each sample serum.

Compound | change in absorbancy at 340 nm (FIG. 2) (α-amylase [1]) | change in absorbancy at 340 nm (FIG. 1) (α-amylase [2])
OC[C@H]1O[C@H](O[C@H]2[C@H](O)[C@@H](O)[C@@H](O[C@H]3[C@H](O)[C@@H](O)[C@@H](O[C@H]4[C@H](O)[C@@H](O)[C@@H](O[C@H]5[C@H](O)[C@@H](O)[C@@H](OC6C(O)C(O)C(O)C(O)C6O)O[C@@H]5CO)O[C@@H]4CO)O[C@@H]3CO)O[C@@H]2CO)[C@H](O)[C@@H](O)[C@@H]1O (some centres unmarked) [G5 I] | good linear relationship was obtained in any concentration after 4 minutes | –
COC[C@H]1O[C@H](O[C@H]2[C@H](O)[C@@H](O)[C@@H](O[C@H]3[C@H](O)[C@@H](O)[C@@H](O[C@H]4[C@H](O)[C@@H](O)[C@@H](O[C@H]5[C@H](O)[C@@H](O)[C@@H](O[C@]6(CO)O[C@H](CO)[C@@H](O)[C@@H]6O)O[C@@H]5CO)O[C@@H]4CO)O[C@@H]3CO)O[C@@H]2CO)[C@H](O)[C@@H](O)[C@@H]1OC [MeG5 F] | – | good linear relationship was obtained in any concentration after 6 minutes
